Laboratory results taken from PubChem BioAssay AID720512 (Broad Institute, 2013).
Active and inactive are the calls of the source. The rule behind the calls is not given here.

Target: Toxin B (TcdB) glycohydrolase, Clostridioides difficile 630
Experiment: TcdB glycohydrolase inhibitors, dose response, biochemical, cherry-pick, plate reader (AID 720512)
Details: recombinant TcdB glycohydrolase activity; for activity change, negative = inhibition: at 19.5 µM (top of the series)

Compound | activity change, negative = inhibition | AC50
COc1cccc(C(CNc2ccc(S(=O)(=O)N3CCN(C)CC3)cc2[N+](=O)[O-])N(C)C)c1 (configuration not stated) | inactive | 
CCc1ccc(Nc2n[n+](-c3ccccc3)c(-c3ccc(OC)c(Br)c3)s2)cc1 | inactive | 
S=c1[nH]nc(NC2CCCCC2)s1 | inactive | 
CC(Oc1ccc(Cl)cc1Cl)C(=O)Nc1ccc(O)cc1 (configuration not stated) | inactive | 
COc1cc(/C=N/N2C(=O)C3C4C=CC(CC4)C3C2=O)ccc1O (configuration not stated) | inactive | 
COc1ccc(/C=C/c2onc(C)c2S(=O)(=O)N2CCC(C(=O)N3CCCCCC3)CC2)cc1 | inactive | 
Cc1c(-n2c(O)c(C3=c4ccccc4=NC3=O)sc2=S)c(=O)n(-c2ccccc2)n1C | inactive | 
CN1C=CC(=CC=C2C=CC(=O)C=C2)C=C1 | inactive | 
O=C(CCn1cnc2ccccc21)N/N=C/c1ccc(O)cc1 | inactive | 
CN(C)c1ccc(C(=O)OCC#CCSc2nnc(-c3cccc4ccccc34)o2)cc1 | inactive | 
CNC(=O)C[C@H]1CC[C@@H]2[C@H](COc3ccc(NC(=O)Nc4ccc(C)cc4)cc3C(=O)N2C)O1 | inactive | 
COc1ccc(C2=NS(=O)(=O)N(C)C(C(=O)NCc3ccc4c(c3)OCO4)=C2)cc1 | inactive | 
CCCNC(=O)N1CC[C@@H]2[C@H]1c1cc(-c3ccccc3)ccc1N(C)[C@H]2CO | inactive | 
O=C(NC(=S)NNS(=O)(=O)c1ccccc1)c1cccnc1 | inactive | 
CN(C)CCNC(=O)c1cc2c(s1)-c1ccc(Cl)cc1SC2 |  | > 39 µM (inactive)
Cc1cccc(NC(=O)c2ccc(N3CCOCC3)c([N+](=O)[O-])c2)n1 |  | > 39 µM (inactive)
COC(=O)Cc1ccc(NC(=S)NCc2ccc(OC)cc2)cc1 | inactive | 
CNC(=O)C1CCN(S(=O)(=O)c2c(C)noc2/C=C/c2ccccc2F)CC1 | inactive | 
CC(C)=CCOc1c2occc2cc2ccc(=O)oc12 | inactive | 

Compound | activity change, negative = inhibition | AC50
COc1ccc(SC[C@H](C)CN2CC[C@H](NC(=O)OCc3ccccc3)CCC2=O)cc1 | inactive | 
Nc1ncc(S(=O)(=O)c2ccc([N+](=O)[O-])cc2)s1 |  | > 39 µM (inactive)
O=c1[nH]c2cc(O)ccc2c2ccccc12 | inactive | 
O=C(O)c1cccnc1SCc1ccccc1Cl | inactive | 
O=C(Nc1sc2c(c1C(=O)O)CCCC2)c1ccc(Cl)cc1 | inactive | 
COc1ccc(-c2cn3cc(C)ccc3n2)cc1F | inactive | 
O=C(NNc1nc2c(F)cc(F)cc2s1)C1COc2ccccc2O1 (configuration not stated) | inactive | 
O=C(Cc1ccccn1)c1ccncc1 | inactive | 
CC(C)CN1CCN(CC#Cc2ccccc2)CC1CCO (configuration not stated) | inactive | 
O=C(N/N=C/c1ccc(O)cc1)NC12CC3CC(CC(C3)C1)C2 | inactive | 
CNc1nc(C23CC4CC(CC(C4)C2)C3)cs1 | inactive | 
O=C(C[C@@H]1C[C@@H]2c3cc(NC(=O)c4ccc5c(c4)OCO5)ccc3O[C@@H]2[C@@H](CO)O1)NCc1cccc(F)c1 | inactive | 
COc1cc(/C=N/NC(=O)c2nnn(-c3nonc3N)c2C(C)C)ccc1O | inactive | 
CN(C)c1ccc(NC(=O)/C=C/c2c(Cl)cccc2Cl)cc1 | inactive | 
O=C(C[C@H]1C[C@H]2c3cc(NC(=O)c4ccc5c(c4)OCO5)ccc3O[C@H]2[C@H](CO)O1)NCc1cccc(F)c1 | inactive | 
Fc1cccc(NC(=S)NNc2c3ccccc3nc3ccccc23)c1 | inactive | 
COc1ccccc1OCC(=O)Nc1ccc(-c2nnc(-c3ccco3)o2)cc1 | inactive | 
Oc1ccc(/C=N/N2CCN(c3ccccn3)CC2)cc1 |  | > 39 µM (inactive)
